For two molecules, IC50 results are on record in patent US10017527B2, “KLK4 inhibitors” (Universiteit Antwerpen, priority 2014, dated 2018).

Holding throughout (format): biochemical
One experiment deals with T1, Plasmine (human plasma) (Homo sapiens, UniProt P00747).
T1 construct: purchased Sigma-Aldrich; host or cells: human plasma
Nature of the experiment: Plasmin inhibition, chromogenic substrate Biophen CS-21(66). To be noted: Plasmin; Tris buffer pH 7.4; read-out: IC50 PLM. From the text: (§1) The IC50 values For KLK1, KLK2 and KLK8 were obtained in a similar way. For plasmin, tPA, thrombin, Fxa, HNE, Plasma kallikrein Chromogenic substrates were used (absorption: 405 nm). (KLK2, KLK4, KLK8 were supplied by Viktor Magdolen TUMunich (TUM)).

The next experiment concerns the target T2, KLK8 (human) (Homo sapiens, UniProt O60259).
T2 construct: purchased Viktor Magdolen, TUMunich (TUM), supplied by an academic laboratory
T2 sequence (O60259 33-260): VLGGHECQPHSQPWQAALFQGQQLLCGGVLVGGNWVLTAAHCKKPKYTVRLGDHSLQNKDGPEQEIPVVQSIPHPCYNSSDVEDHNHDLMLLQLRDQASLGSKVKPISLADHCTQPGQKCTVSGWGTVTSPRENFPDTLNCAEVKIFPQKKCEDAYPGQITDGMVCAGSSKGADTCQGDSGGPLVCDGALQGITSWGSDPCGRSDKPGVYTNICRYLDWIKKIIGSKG
Nature of the experiment: KLK8 inhibition, fluorogenic substrate Boc-Val-Pro-Arg-AMC. The note with it: Tris buffer pH 8; read-out: IC50 KLK8.
From the text: as §1

The next experiment addresses T3, tPA (recombinant) (Homo sapiens, UniProt P00750).
T3 construct: purchased Nodia
Nature of the experiment: tPA inhibition, chromogenic substrate Biophen CS-05(88). The note with it: Tris buffer pH 8.3; read-out: IC50 tPA. An outline of the steps: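 Chromogenic tPA and neutrophil elastase assays were monitored at 405 nm absorption. KLK1 and KLK2 IC50s came from a common method.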

Experiment [1] addresses T4, Neurtophil Elastase(human) (Homo sapiens, UniProt P08246).
T4 construct: purchased Enzo-life sciences
T4 sequence (P08246 30-267): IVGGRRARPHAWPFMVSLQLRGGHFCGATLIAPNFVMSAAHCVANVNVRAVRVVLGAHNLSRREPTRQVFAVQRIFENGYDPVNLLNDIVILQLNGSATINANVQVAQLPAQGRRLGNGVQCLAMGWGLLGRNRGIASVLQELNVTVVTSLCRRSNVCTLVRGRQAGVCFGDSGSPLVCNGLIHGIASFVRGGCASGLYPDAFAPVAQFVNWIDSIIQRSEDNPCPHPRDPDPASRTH
As to the kind of experiment: Neutrophil elastase inhibition, chromogenic substrate MeOSuc-Ala-Ala-Pro-Val-pNA. The note with it: Tris buffer pH 7.8; read-out: IC50 HNE.
From the text: as §1

T3 sequence (P00750 36-562, species assumed): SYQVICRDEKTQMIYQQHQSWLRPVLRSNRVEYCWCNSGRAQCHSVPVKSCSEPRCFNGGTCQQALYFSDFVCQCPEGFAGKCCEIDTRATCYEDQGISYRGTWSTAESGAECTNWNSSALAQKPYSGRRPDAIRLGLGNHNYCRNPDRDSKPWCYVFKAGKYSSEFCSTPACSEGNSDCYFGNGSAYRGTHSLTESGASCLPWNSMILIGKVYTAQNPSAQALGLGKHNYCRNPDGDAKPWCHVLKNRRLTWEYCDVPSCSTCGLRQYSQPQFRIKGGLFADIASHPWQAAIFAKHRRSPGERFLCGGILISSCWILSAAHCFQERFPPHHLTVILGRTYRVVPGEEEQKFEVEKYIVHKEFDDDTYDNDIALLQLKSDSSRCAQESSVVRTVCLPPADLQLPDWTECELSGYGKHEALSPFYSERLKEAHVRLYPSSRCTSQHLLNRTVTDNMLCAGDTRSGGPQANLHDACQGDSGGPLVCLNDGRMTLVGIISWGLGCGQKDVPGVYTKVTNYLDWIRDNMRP
T1 sequence (P00747 581-810 limits assumed): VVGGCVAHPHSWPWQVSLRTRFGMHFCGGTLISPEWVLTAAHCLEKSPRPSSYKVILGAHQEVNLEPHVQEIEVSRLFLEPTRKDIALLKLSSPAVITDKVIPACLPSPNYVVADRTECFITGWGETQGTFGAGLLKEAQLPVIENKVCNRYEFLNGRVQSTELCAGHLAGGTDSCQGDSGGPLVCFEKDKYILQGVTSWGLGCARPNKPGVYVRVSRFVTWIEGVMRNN
T1 sequence (P00747 98-580 partner limits assumed): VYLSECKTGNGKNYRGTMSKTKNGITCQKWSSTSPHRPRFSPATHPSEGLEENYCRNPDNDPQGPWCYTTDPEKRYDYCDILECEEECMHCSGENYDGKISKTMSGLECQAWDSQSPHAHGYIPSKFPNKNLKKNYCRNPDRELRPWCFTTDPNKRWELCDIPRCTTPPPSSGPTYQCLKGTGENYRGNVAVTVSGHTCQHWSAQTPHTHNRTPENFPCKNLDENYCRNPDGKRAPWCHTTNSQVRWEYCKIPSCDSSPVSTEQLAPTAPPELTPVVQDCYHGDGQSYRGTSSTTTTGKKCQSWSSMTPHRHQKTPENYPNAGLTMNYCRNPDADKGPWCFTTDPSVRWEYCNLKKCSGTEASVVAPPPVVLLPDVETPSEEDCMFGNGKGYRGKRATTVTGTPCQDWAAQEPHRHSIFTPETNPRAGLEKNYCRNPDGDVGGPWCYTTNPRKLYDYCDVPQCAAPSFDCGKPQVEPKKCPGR

As a reminder, the IC50 is the concentration needed to halve the response being measured. For `N=C(N)Nc1ccc(C(NC(=O)OCCOc2ccccc2)P(=O)(Oc2ccccc2)Oc2ccccc2)cc1.O=C(O)C(F)(F)F` (centres unmarked) [Compound 30, 2-phenoxyethyl((diphenoxyphosphoryl)(4-guanidinophenyl)methyl)carbamate 2,2,2-trifluoroacetate], the IC50 on Plasmine (human plasma) is 10 to 250 µM; at KLK8 (human), 10 to 250 µM; at tPA (recombinant), > 250 µM; in experiment [1], > 250 µM.
Take `COCCOCCOC(=O)NC(c1ccc(NC(=N)N)cc1)P(=O)(Oc1ccccc1)Oc1ccccc1.O=C(O)C(F)(F)F` (centres unmarked) [Compound 28, 2-(2-methoxyethoxy)ethyl((diphenoxyphosphoryl)(4-guanidinophenyl)methyl) carbamate 2,2,2-trifluoroacetate]: the half-maximal inhibitory concentration (IC50) at Plasmine (human plasma) is 10 to 250 µM; on KLK8 (human), 10 to 250 µM; on tPA (recombinant) it was > 250 µM; in experiment [1], > 250 µM.
